In patent publication US8192962B2, “Processes for detecting toxic substances” (Daikin Industries, Ltd., priority 2001, dated 2012):

System: Stress protein genes
Experiment: DNA chip mRNA expression in yeast, stress protein genes (Table 6)
Assay type: cell-based, Saccharomyces cerevisiae S288C
Summary of the method: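 Whole-genome yeast DNA chip hybridization (65° C., >12 h) of Cy-labeled cDNA from S288C cells exposed 2 h at 25° C. to a sub-lethal toxicant dose in YPD; value is intensity relative to chemical-free control.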

Q: Which results are given for `O=[N+]([O-])c1cc[n+]([O-])c2ccccc12` [(5), 4-nitroquinolin-N-oxide]?
A: The level of expressed mRNA in the presence of chemical substance/The level of expressed mRNA in the absence of chemical substance (yeast gene YAL005C): 1.2; The level of expressed mRNA in the presence of chemical substance/The level of expressed mRNA in the absence of chemical substance (yeast gene YAL015C): 1.1; The level of expressed mRNA in the presence of chemical substance/The level of expressed mRNA in the absence of chemical substance (yeast gene YBL075C): 1.1; The level of expressed mRNA in the presence of chemical substance/The level of expressed mRNA in the absence of chemical substance (yeast gene YBL093C): 1.0; The level of expressed mRNA in the presence of chemical substance/The level of expressed mRNA in the absence of chemical substance (yeast gene YBR044C): 1.4; The level of expressed mRNA in the presence of chemical substance/The level of expressed mRNA in the absence of chemical substance (yeast gene YBR054W): 0.8; The level of expressed mRNA in the presence of chemical substance/The level of expressed mRNA in the absence of chemical substance (yeast gene YBR067C): 1.1; The level of expressed mRNA in the presence of chemical substance/The level of expressed mRNA in the absence of chemical substance (yeast gene YBR072W): 1.2; The level of expressed mRNA in the presence of chemical substance/The level of expressed mRNA in the absence of chemical substance (yeast gene YBR126C): 0.7; The level of expressed mRNA in the presence of chemical substance/The level of expressed mRNA in the absence of chemical substance (yeast gene YBR169C): 0.8; The level of expressed mRNA in the presence of chemical substance/The level of expressed mRNA in the absence of chemical substance (yeast gene YCL035C): 1.5; The level of expressed mRNA in the presence of chemical substance/The level of expressed mRNA in the absence of chemical substance (yeast gene YCR021C): 0.9; The level of expressed mRNA in the presence of chemical substance/The level of expressed mRNA in the absence of chemical substance (yeast gene YCR060W): 0.8; The level of expressed mRNA in the presence of chemical substance/The level of expressed mRNA in the absence of chemical substance (yeast gene YCR083W): 1.6; The level of expressed mRNA in the presence of chemical substance/The level of expressed mRNA in the absence of chemical substance (yeast gene YDL022W): 0.7; The level of expressed mRNA in the presence of chemical substance/The level of expressed mRNA in the absence of chemical substance (yeast gene YDL025C): 0.6; The level of expressed mRNA in the presence of chemical substance/The level of expressed mRNA in the absence of chemical substance (yeast gene YDR033W): 1.1; The level of expressed mRNA in the presence of chemical substance/The level of expressed mRNA in the absence of chemical substance (yeast gene YDR077W): 0.8; The level of expressed mRNA in the presence of chemical substance/The level of expressed mRNA in the absence of chemical substance (yeast gene YDR098C): 1.5; The level of expressed mRNA in the presence of chemical substance/The level of expressed mRNA in the absence of chemical substance (yeast gene YDR155C): 0.8; The level of expressed mRNA in the presence of chemical substance/The level of expressed mRNA in the absence of chemical substance (yeast gene YDR258C): 1.3; The level of expressed mRNA in the presence of chemical substance/The level of expressed mRNA in the absence of chemical substance (yeast gene YDR293C): 0.6; The level of expressed mRNA in the presence of chemical substance/The level of expressed mRNA in the absence of chemical substance (yeast gene YDR436W): 0.7; The level of expressed mRNA in the presence of chemical substance/The level of expressed mRNA in the absence of chemical substance (yeast gene YDR513W): 0.9; The level of expressed mRNA in the presence of chemical substance/The level of expressed mRNA in the absence of chemical substance (yeast gene YDR519W): 0.7; The level of expressed mRNA in the presence of chemical substance/The level of expressed mRNA in the absence of chemical substance (yeast gene YEL030W): 0.4; The level of expressed mRNA in the presence of chemical substance/The level of expressed mRNA in the absence of chemical substance (yeast gene YEL039C): 0.9; The level of expressed mRNA in the presence of chemical substance/The level of expressed mRNA in the absence of chemical substance (yeast gene YER042W): 1.1; The level of expressed mRNA in the presence of chemical substance/The level of expressed mRNA in the absence of chemical substance (yeast gene YER057C): 0.8; The level of expressed mRNA in the presence of chemical substance/The level of expressed mRNA in the absence of chemical substance (yeast gene YER103W): 1.1; The level of expressed mRNA in the presence of chemical substance/The level of expressed mRNA in the absence of chemical substance (yeast gene YER125W): 1.4; The level of expressed mRNA in the presence of chemical substance/The level of expressed mRNA in the absence of chemical substance (yeast gene YFL014W): 1.0; The level of expressed mRNA in the presence of chemical substance/The level of expressed mRNA in the absence of chemical substance (yeast gene YFL016C): 1.3; The level of expressed mRNA in the presence of chemical substance/The level of expressed mRNA in the absence of chemical substance (yeast gene YFL020C): 1.1; The level of expressed mRNA in the presence of chemical substance/The level of expressed mRNA in the absence of chemical substance (yeast gene YFR052W): 1.4; The level of expressed mRNA in the presence of chemical substance/The level of expressed mRNA in the absence of chemical substance (yeast gene YGL073W): 1.7; The level of expressed mRNA in the presence of chemical substance/The level of expressed mRNA in the absence of chemical substance (yeast gene YGL115W): 1.2; The level of expressed mRNA in the presence of chemical substance/The level of expressed mRNA in the absence of chemical substance (yeast gene YGL181W): 1.1; The level of expressed mRNA in the presence of chemical substance/The level of expressed mRNA in the absence of chemical substance (yeast gene YGR088W): 1.0; The level of expressed mRNA in the presence of chemical substance/The level of expressed mRNA in the absence of chemical substance (yeast gene YHL028W): 1.1; The level of expressed mRNA in the presence of chemical substance/The level of expressed mRNA in the absence of chemical substance (yeast gene YHL046C): 0.9; The level of expressed mRNA in the presence of chemical substance/The level of expressed mRNA in the absence of chemical substance (yeast gene YHR030C): 1.8; The level of expressed mRNA in the presence of chemical substance/The level of expressed mRNA in the absence of chemical substance (yeast gene YHR057C): 1.3; The level of expressed mRNA in the presence of chemical substance/The level of expressed mRNA in the absence of chemical substance (yeast gene YHR104W): 1.1; The level of expressed mRNA in the presence of chemical substance/The level of expressed mRNA in the absence of chemical substance (yeast gene YIL011W): 1.1; The level of expressed mRNA in the presence of chemical substance/The level of expressed mRNA in the absence of chemical substance (yeast gene YIL033C): 0.7; The level of expressed mRNA in the presence of chemical substance/The level of expressed mRNA in the absence of chemical substance (yeast gene YIR037W): 0.6; The level of expressed mRNA in the presence of chemical substance/The level of expressed mRNA in the absence of chemical substance (yeast gene YIR038C): 0.7; The level of expressed mRNA in the presence of chemical substance/The level of expressed mRNA in the absence of chemical substance (yeast gene YJL128C): 1.2; The level of expressed mRNA in the presence of chemical substance/The level of expressed mRNA in the absence of chemical substance (yeast gene YJL158C): 1.4; The level of expressed mRNA in the presence of chemical substance/The level of expressed mRNA in the absence of chemical substance (yeast gene YJL159W): 1.0; The level of expressed mRNA in the presence of chemical substance/The level of expressed mRNA in the absence of chemical substance (yeast gene YJL165C): 1.1; The level of expressed mRNA in the presence of chemical substance/The level of expressed mRNA in the absence of chemical substance (yeast gene YJR045C): 0.5; The level of expressed mRNA in the presence of chemical substance/The level of expressed mRNA in the absence of chemical substance (yeast gene YJR090C): 1.2; The level of expressed mRNA in the presence of chemical substance/The level of expressed mRNA in the absence of chemical substance (yeast gene YKL161C): 1.4; The level of expressed mRNA in the presence of chemical substance/The level of expressed mRNA in the absence of chemical substance (yeast gene YKL163W): 0.6; The level of expressed mRNA in the presence of chemical substance/The level of expressed mRNA in the absence of chemical substance (yeast gene YKL164C): 1.1; The level of expressed mRNA in the presence of chemical substance/The level of expressed mRNA in the absence of chemical substance (yeast gene YKL210W): 0.8; The level of expressed mRNA in the presence of chemical substance/The level of expressed mRNA in the absence of chemical substance (yeast gene YKR053C): 1.0; The level of expressed mRNA in the presence of chemical substance/The level of expressed mRNA in the absence of chemical substance (yeast gene YLL024C): 0.7; The level of expressed mRNA in the presence of chemical substance/The level of expressed mRNA in the absence of chemical substance (yeast gene YLL026W): 0.9; The level of expressed mRNA in the presence of chemical substance/The level of expressed mRNA in the absence of chemical substance (yeast gene YLL039C): 0.9; The level of expressed mRNA in the presence of chemical substance/The level of expressed mRNA in the absence of chemical substance (yeast gene YLL060C): 0.9; The level of expressed mRNA in the presence of chemical substance/The level of expressed mRNA in the absence of chemical substance (yeast gene YLR006C): 1.6; The level of expressed mRNA in the presence of chemical substance/The level of expressed mRNA in the absence of chemical substance (yeast gene YLR109W): 1.3; The level of expressed mRNA in the presence of chemical substance/The level of expressed mRNA in the absence of chemical substance (yeast gene YLR259C): 1.1; The level of expressed mRNA in the presence of chemical substance/The level of expressed mRNA in the absence of chemical substance (yeast gene YML007W): 1.0; The level of expressed mRNA in the presence of chemical substance/The level of expressed mRNA in the absence of chemical substance (yeast gene YML070W): 1.4; The level of expressed mRNA in the presence of chemical substance/The level of expressed mRNA in the absence of chemical substance (yeast gene YMR021C): 1.6; The level of expressed mRNA in the presence of chemical substance/The level of expressed mRNA in the absence of chemical substance (yeast gene YMR173W): 1.1; The level of expressed mRNA in the presence of chemical substance/The level of expressed mRNA in the absence of chemical substance (yeast gene YMR186W): 1.3; The level of expressed mRNA in the presence of chemical substance/The level of expressed mRNA in the absence of chemical substance (yeast gene YNL064C): 0.9; The level of expressed mRNA in the presence of chemical substance/The level of expressed mRNA in the absence of chemical substance (yeast gene YNL160W): 1.3; The level of expressed mRNA in the presence of chemical substance/The level of expressed mRNA in the absence of chemical substance (yeast gene YNL241C): 0.8; The level of expressed mRNA in the presence of chemical substance/The level of expressed mRNA in the absence of chemical substance (yeast gene YNR076W): 1.2; The level of expressed mRNA in the presence of chemical substance/The level of expressed mRNA in the absence of chemical substance (yeast gene YOL064C): 0.9; The level of expressed mRNA in the presence of chemical substance/The level of expressed mRNA in the absence of chemical substance (yeast gene YOL161C): 0.9; The level of expressed mRNA in the presence of chemical substance/The level of expressed mRNA in the absence of chemical substance (yeast gene YOR008C): 1.4; The level of expressed mRNA in the presence of chemical substance/The level of expressed mRNA in the absence of chemical substance (yeast gene YOR009W): 0.8; The level of expressed mRNA in the presence of chemical substance/The level of expressed mRNA in the absence of chemical substance (yeast gene YOR010C): 1.2; The level of expressed mRNA in the presence of chemical substance/The level of expressed mRNA in the absence of chemical substance (yeast gene YOR027W): 1.0; The level of expressed mRNA in the presence of chemical substance/The level of expressed mRNA in the absence of chemical substance (yeast gene YOR208W): 1.4; The level of expressed mRNA in the presence of chemical substance/The level of expressed mRNA in the absence of chemical substance (yeast gene YPL059W): 1.2; The level of expressed mRNA in the presence of chemical substance/The level of expressed mRNA in the absence of chemical substance (yeast gene YPL106C): 1.2; The level of expressed mRNA in the presence of chemical substance/The level of expressed mRNA in the absence of chemical substance (yeast gene YPL140C): 0.8; The level of expressed mRNA in the presence of chemical substance/The level of expressed mRNA in the absence of chemical substance (yeast gene YPL194W): 1.3; The level of expressed mRNA in the presence of chemical substance/The level of expressed mRNA in the absence of chemical substance (yeast gene YPL223C): 0.9; The level of expressed mRNA in the presence of chemical substance/The level of expressed mRNA in the absence of chemical substance (yeast gene YPL240C): 1.3; The level of expressed mRNA in the presence of chemical substance/The level of expressed mRNA in the absence of chemical substance (yeast gene YPR005C): 1.0; The level of expressed mRNA in the presence of chemical substance/The level of expressed mRNA in the absence of chemical substance (yeast gene YPR026W): 0.8
